{
  "source": "patent US20250099420A1",
  "about": "“SMALL MOLECULE MODULATORS OF GPR139 COMPLEX” (University of Florida Research Foundation, Incorporated, priority 2022, published 2025)",
  "key": {"GPR139 [1]": {"target": "T1, GPR139 (Homo sapiens, UniProt Q6DWJ6)", "T1 sequence (Q6DWJ6 1-353)": "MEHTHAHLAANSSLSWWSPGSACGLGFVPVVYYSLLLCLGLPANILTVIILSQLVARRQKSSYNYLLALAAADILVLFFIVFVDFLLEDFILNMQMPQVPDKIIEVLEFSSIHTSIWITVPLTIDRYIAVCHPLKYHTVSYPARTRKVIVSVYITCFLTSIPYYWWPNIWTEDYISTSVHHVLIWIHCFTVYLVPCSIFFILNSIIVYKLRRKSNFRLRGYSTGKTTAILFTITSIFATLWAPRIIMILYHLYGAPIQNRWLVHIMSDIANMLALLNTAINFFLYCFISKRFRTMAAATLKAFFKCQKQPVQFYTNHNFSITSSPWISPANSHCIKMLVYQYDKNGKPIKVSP", "assay": "[3H]JNJ-63533054 radioligand competition binding assay on membranes of HEK293T/17 cells", "set-up": "HA signal peptide (HASP) (N); expressed in transfected cells; host or cells: HEK293T/17 cells (membrane preparation)", "settings": "for inhibition at 10 µM: 10 μM of the indicated compound, (10 μM) JNJ-63533054 as printed in title; for Ki: Ki=IC50/(1+C/Kd), membranes of HEK293T/17 cells expressing human GPR139, read-out: Ki ± SEM", "source_text": "Eighteen compounds were selected for additional study. The compounds were re-synthesized and tested in radioligand binding competition assays for their ability to displace [^3H]-labeled reference agonist JNJ-63533054 on GPR139. The GPR139 construct used (pCDNA3.1-HASP-HA-GPR139) contained an N-terminal HA signal peptide (HASP), followed by an HA tag and human GPR139 (NM_001002911.4). HEK293T/17 cells were maintained in Dulbecco's modified Eagle's medium with 10% (v/v) fetal bovine serum, nonessential amino acids, and 1 mM sodium pyruvate.\nCompetition binding assay: Radioligand binding assay used human GPR139 expressed in HEK293T/17 cells. HEK293T/17 cells were transfected pCDNA3.1-HASP-HA-GPR139. 48 h after, cells were detached from plates by pipetting with PBS, centrifuged at 500×g for 5 min, and then the fluid was aspirated away. The cell pellets were frozen with liquid nitrogen and stored at −80° C. Pellets were homogenized in TE buffer (50 mM Tris-HCl, pH 7.4, 5 mM EDTA) and centrifuged at 1000×g at 4° C. for 5 min. Supernatant was collected and recentrifuged at 30,000×g at 4° C. for 30 min. The pellet was rehomogenized in TE buffer and incubated for 60 minutes at room temperature with eight concentrations of [^3H]JNJ-63533054 (specific activity 24.7 Ci/mmol) ranging from 0.024 nM to 400 nM. The binding reaction was terminated by filtration through GF/C filter (Waterman) followed by washes with cold TE buffer. Filters were dried in a hood overnight followed by the addition of scintillation fluid. Bound radioactivity was counted on a Hidex 600 liquid scintillation counter. […] Nonspecific binding was determined with 10 μM JNJ-63533054. The Kd values of the radioligands and IC50 of the antagonist were calculated by Graphpad Prism. Ki values were calculated as Ki=IC50/(1+C/Kd), where C is concentration of the radioligand.\nVarious concentrations of selected ligands were then added in the presence of 10 nM [^3H]-JNJ-63533054 and their ability to displace [^3H]labeling on cellular membranes was assessed. FIGS. 3B and 3C present representative data obtained in these experiments. […] The results of these experiments are presented in the Table 3 and confirm selective binding the compounds to GPR139 thereby validating their interaction with the intended target."}, "parental HEK cells": {"tested_on": "parental HEK cells", "assay": "HEK parental Antagonist Counterscreen Assay (non-transfected cells, acetylcholine control)", "format": "cell-based", "settings": "for EC50: Homo sapiens, HEK293, acetylcholine as control, scientific notation, molarity"}, "GPR139 [2]": {"target": "T1, GPR139", "assay": "GPR139 Agonist titration / agonist counterscreen assay (calcium detection, HEK-GPR139 cells)", "format": "cell-based", "set-up": "expressed in transfected cells; host or cells: HEK Aequorin cells, Maxcyte transient transfection", "settings": "agonist counterscreen of the antagonists; for EC50: scientific notation, molarity, read-out: GRP139 Agonist activity EC50", "protocol": "GPR activity was assessed using a calcium detection assay. […] Negative control samples were treated with DMSO. […] Intracellular calcium was measured using Calcium 5."}, "GPR139 [3]": {"target": "T1, GPR139", "assay": "GPR139 Antagonist titration assay (calcium detection, HEK-GPR139 cells, vs EC80 of S-JNJ-63533054)", "settings": "for GPR139 Antagonist Activity Averaged Max % Response (±St. Dev.): activity relative to known control; for GPR139 Antagonist Activity Lipophilic Efficiency (logD): based on logD; for GPR139 Antagonist Activity Lipophilic Efficiency (logP): based on logP; for GPR139 Antagonist Activity Hill Slope: fitted dose-response curve", "procedure": "GPR activity was assessed using a calcium detection assay. GPR139 agonists stimulate an increase in intracellular calcium in HEK-GPR139 cells. Agonists increase the release of intracellular calcium, while antagonists decrease the release of intracellular calcium, as compared to an EC80 stimulation of the know agonist S-JNJ-63533054. The positive control for the agonist mode was cells treated with EC100 of known agonist S-JNJ-63533054. Negative control samples were treated with DMSO. The antagonist high control in cells was EC80 of S-JNJ-63533054+IC100 S-JNJ-3792165, while cells were treated with EC80 of S-JNJ-63533054+DMSO for the low control. Intracellular calcium was measured using Calcium 5.\nHEK cells were transfected the DNA encoding GPR139 and incubated for 24 hours. 3000 cells/well in 3 μL HEPES and 1% DMSO were seeded into 1536-well plates. 3 μL Calcium 5 was then added to each well and cells were incubated for 60 min. at 37° C. in 5% CO2 and 95% relative humidity. Cells were pretreated with 50 nL DMSO (5 min. at room temperature in the dark) to stabilize response and desensitize cells to DMSO. A 5 second basal read was recorded and compounds in 30 nL were added to the cells, followed by a 150 second read.\nB. Antagonist Mode: The “High Control” represented wells containing cells with GPR139+Antagonist IC100+Agonist EC80. “Low Control” represented wells containing cells with GPR139 with EC100 Agonist. “0% control” and sample field represented wells containing cells with GPR139 with EC80 Agonist with DMSO or compounds. The Z′ and S:B for this assay were calculated using the High Control and Low Control wells.\nThe HEK parental counterscreen utilized the same cells but not transfected with the plasmid. Acetylcholine was used in place of GPR139 agonist as the control compound. The cells were plated overnight, similar to the HEK antagonist counterscreen protocol.\nThe GPR139 Agonist and Antagonist titration assays employed the same reagents, protocols, and detection systems as the primary assays, but tested each as 10 point dose response starting at 676 nM concentration in triplicate with 1:3 dilutions. The HEK parental counterscreens utilized the same cells but not transfected with the plasmid. Acetylcholine was used in place of GPR139 agonist as the control compound. The cells were plated overnight, similar to the HEK antagonist counterscreen protocol.\nFor each test compound, percent activation was plotted against compound concentration. A four parameter equation describing a sigmoidal dose-response curve was then fitted with adjustable baseline using Assay Explorer software (Symyx Technologies Inc.)."}},
  "data": [
    {"molecule": "O=C(NCCC1=CCCCC1)N1c2ccccc2Sc2ccccc21", "note": "[SR-01000452455-1 analog]", "values": [
      {"measurement": "inhibition at 10 µM", "setting": "GPR139 [1]", "result": "107 ± 1.95", "unit": "%"},
      {"measurement": "Ki", "setting": "GPR139 [1]", "result": "1.68 ± 0.04", "unit": "µM"}
    ]},
    {"molecule": "Cc1cc(C)cc(-n2cnc3cc(C(=O)NCc4ccccc4Cl)ccc32)c1", "note": "[SR-01000579741]", "values": [
      {"measurement": "HEK antagonist activity Averaged Max % Response (±St. Dev.)", "setting": "parental HEK cells", "result": "13.52 ± 10.95", "unit": "%"},
      {"measurement": "EC50", "setting": "parental HEK cells", "result": "> 13", "unit": "µM"},
      {"measurement": "GRP139 Agonist activity Averaged Max % Response (±St. Dev.)", "setting": "GPR139 [2]", "result": "21.81 ± 2.59", "unit": "%"},
      {"measurement": "EC50", "setting": "GPR139 [2]", "result": "> 13", "unit": "µM"},
      {"measurement": "EC50", "setting": "GPR139 [3]", "result": 3.1, "unit": "µM"},
      {"measurement": "GPR139 Antagonist Activity Ligand Efficiency", "setting": "GPR139 [3]", "result": 0.28},
      {"measurement": "GPR139 Antagonist Activity Averaged Max % Response (±St. Dev.)", "setting": "GPR139 [3]", "result": "81.29 ± 5.44", "unit": "%"},
      {"measurement": "GPR139 Antagonist Activity Lipophilic Efficiency (logD)", "setting": "GPR139 [3]", "result": "−62.7E−3"},
      {"measurement": "GPR139 Antagonist Activity Lipophilic Efficiency (logP)", "setting": "GPR139 [3]", "result": "−63.1E−3"},
      {"measurement": "GPR139 Antagonist Activity Hill Slope", "setting": "GPR139 [3]", "result": 2.25}
    ]},
    {"molecule": "CCOC(=O)N1CCC(NC(=O)c2cnn3c(O)c(Cc4cccc(C)c4)c(C)nc23)CC1", "note": "[SR-01000581959]", "values": [
      {"measurement": "HEK antagonist activity Averaged Max % Response (±St. Dev.)", "setting": "parental HEK cells", "result": "14.54 ± 9.66", "unit": "%"},
      {"measurement": "EC50", "setting": "parental HEK cells", "result": "> 13.4", "unit": "µM"},
      {"measurement": "GRP139 Agonist activity Averaged Max % Response (±St. Dev.)", "setting": "GPR139 [2]", "result": "−987E−3 ± 9.16 ^ %"},
      {"measurement": "GPR139 Antagonist Activity Ligand Efficiency", "setting": "GPR139 [3]", "result": 0.22},
      {"measurement": "GPR139 Antagonist Activity Averaged Max % Response (±St. Dev.)", "setting": "GPR139 [3]", "result": "56.13 ± 9.03", "unit": "%"},
      {"measurement": "GPR139 Antagonist Activity Lipophilic Efficiency (logD)", "setting": "GPR139 [3]", "result": 2.24},
      {"measurement": "GPR139 Antagonist Activity Lipophilic Efficiency (logP)", "setting": "GPR139 [3]", "result": 2.24},
      {"measurement": "GPR139 Antagonist Activity Hill Slope", "setting": "GPR139 [3]", "result": 1.46}
    ]},
    {"molecule": "Cc1cccc(-n2ccnc2SCC(=O)Nc2cccc(C)c2C)c1", "note": "[SR-01000907209]", "values": [
      {"measurement": "HEK antagonist activity Averaged Max % Response (±St. Dev.)", "setting": "parental HEK cells", "result": "18.39 ± 12.65", "unit": "%"},
      {"measurement": "EC50", "setting": "parental HEK cells", "result": "> 14.1", "unit": "µM"},
      {"measurement": "GRP139 Agonist activity Averaged Max % Response (±St. Dev.)", "setting": "GPR139 [2]", "result": "13.37 ± 4.41", "unit": "%"},
      {"measurement": "EC50", "setting": "GPR139 [2]", "result": "> 14.1", "unit": "µM"},
      {"measurement": "EC50", "setting": "GPR139 [3]", "result": "> 1.6", "unit": "µM"},
      {"measurement": "GPR139 Antagonist Activity Ligand Efficiency", "setting": "GPR139 [3]", "result": 0.33},
      {"measurement": "GPR139 Antagonist Activity Averaged Max % Response (±St. Dev.)", "setting": "GPR139 [3]", "result": "87.64 ± 8.11", "unit": "%"},
      {"measurement": "GPR139 Antagonist Activity Lipophilic Efficiency (logD)", "setting": "GPR139 [3]", "result": 0.62},
      {"measurement": "GPR139 Antagonist Activity Lipophilic Efficiency (logP)", "setting": "GPR139 [3]", "result": 0.62}
    ]},
    {"molecule": "O=C(Nc1cccc(-c2nnco2)c1)C1c2ccccc2Oc2ccccc21", "note": "[SR-01000907648-1 analog]", "values": [
      {"measurement": "inhibition at 10 µM", "setting": "GPR139 [1]", "result": "65.5 ± 0.72", "unit": "%"},
      {"measurement": "Ki", "setting": "GPR139 [1]", "result": "6.07 ± 0.14", "unit": "µM"}
    ]},
    {"molecule": "Cc1c(-c2cccc(NC(=O)C3c4ccccc4Oc4ccccc43)c2)nc2ncccn12", "note": "[SR-01000907648]", "values": [
      {"measurement": "HEK antagonist activity Averaged Max % Response (±St. Dev.)", "setting": "parental HEK cells", "result": "55.77 ± 9.26", "unit": "%"},
      {"measurement": "EC50", "setting": "parental HEK cells", "result": 7.6, "unit": "µM"},
      {"measurement": "GRP139 Agonist activity Averaged Max % Response (±St. Dev.)", "setting": "GPR139 [2]", "result": "35.82 ± 4.87", "unit": "%"},
      {"measurement": "EC50", "setting": "GPR139 [2]", "result": "> 14.1", "unit": "µM"},
      {"measurement": "EC50", "setting": "GPR139 [3]", "result": 1.5, "unit": "µM"},
      {"measurement": "GPR139 Antagonist Activity Ligand Efficiency", "setting": "GPR139 [3]", "result": 0.25},
      {"measurement": "GPR139 Antagonist Activity Averaged Max % Response (±St. Dev.)", "setting": "GPR139 [3]", "result": "88.60 ± 6.25", "unit": "%"},
      {"measurement": "GPR139 Antagonist Activity Lipophilic Efficiency (logD)", "setting": "GPR139 [3]", "result": 1.51},
      {"measurement": "GPR139 Antagonist Activity Lipophilic Efficiency (logP)", "setting": "GPR139 [3]", "result": 1.51},
      {"measurement": "GPR139 Antagonist Activity Hill Slope", "setting": "GPR139 [3]", "result": 0.23}
    ]},
    {"molecule": "CC(=O)Nc1ccc(Sc2ccc(S(=O)(=O)Nc3ccc(C)cc3C)cc2[N+](=O)[O-])cc1", "note": "[SR-07000003837-2 analog 1]", "values": [
      {"measurement": "inhibition at 10 µM", "setting": "GPR139 [1]", "result": "88.7 ± 21.1", "unit": "%"},
      {"measurement": "Ki", "setting": "GPR139 [1]", "result": "9.45 ± 0.21", "unit": "µM"}
    ]},
    {"molecule": "CN1CCN(S(=O)(=O)c2ccc(Sc3ccc(Cl)cc3)c([N+](=O)[O-])c2)CC1", "note": "[SR-07000003837-2 analog 2]", "values": [
      {"measurement": "inhibition at 10 µM", "setting": "GPR139 [1]", "result": "51.9 ± 5.47", "unit": "%"},
      {"measurement": "Ki", "setting": "GPR139 [1]", "result": "1.29 ± 0.03", "unit": "µM"}
    ]}
  ]
}
